Laboratory results from patent US5098932A, “Cyclic ether derivatives” (Imperial Chemical Industries PLC, ICI Pharma, priority 1988, dated 1992).
pIC50: −log10 of the molar value.

Columns and labels:
5-LO (LTB4) = test: In vitro heparinised human blood assay, A23187 challenge, LTB4 radioimmunoassay, test b); type: cell-based
Method: (§1) b) An in vitro assay system involving incubating a test compound with heparinised human blood, prior to challenge with the calcium ionophore A23187 and then indirectly measuring the inhibitory effects on 5-LO by assaying the amount of LTB4 using the specific radioimmunoassay described by Carey and Forder (F. Carey and R. A. Forder, Brit. J. Pharmacol. 1985, 84, 34P) which involves the use of a protein-LTB4 conjugate produced using the procedure of Young et alia (Prostaglandins, 1983, 26(4),605-613). The effects of a test compound on the enzyme cyclooxygenase (which is involved in the alternative metabolic pathway for arachidonic acid and gives rise to prostaglandins, thromboxanes and related metabolites) may be measured at the same time using the specific radioimmunoassay for thromboxane B2 (T×B2) described by Carey and Forder (see above). This test provides an indication of the effects of a test compound against 5-LO and also cyclooxygenase in the presence of blood cells and proteins. It permits the selectivity of the inhibitory effect on 5-LO or cyclooxygenase to be assessed.

cyclooxygenase (TxB2) = test: In vitro heparinised human blood assay, A23187 challenge, TxB2 radioimmunoassay, test b); type: cell-based
Method: as §1

CCC1(c2cccc(OCc3ccc4ccccc4c3)c2)COC(C)(C)O1 (centres unmarked) [4-ethyl-2,2-dimethyl-4-[3-(naphth-2-ylmethoxy)phenyl]-1,3-dioxolane]
pIC50 (5-LO (LTB4)): 7.00
pIC50 (cyclooxygenase (TxB2)): < 4.40
